Assay: Concentration of the actives by HPLC after storage (storage stability)
Format: physicochemical
Procedure: The assay of the two Ai's was checked by HPLC Method.
The analytical method included: • 1. Preparation of standard solution. • 2. Sample solution preparation: 200 mg sample was measured in triplicates into 50 ml volumetric flask. • 3. Acetonitrile was added. • 4. Injection of the standard and sample solutions in room temperature.
The concentration was calculated by: […]
The samples were checked for assay after 11 days and 14 days at room temperature and at 54° C. The AI % should not decrease more than 5% after the accelerated stability at 54° C.
The samples were checked for assay after 11 days and 14 days at room temperature and at 54° C.
The AI % should not decrease more than 5% after the accelerated stability at 54° C.

[1] = 11 days after EC preparation (54° C.)
[2] = 11 days after EC preparation (r.t)
[3] = 14 days after EC preparation (54° C.)
[4] = 14 days after EC preparation (r.t)

SMILES	Concentration of the active in formulation A [1]	Concentration of the active in formulation A [2]	Concentration of the active in formulation A [3]	Concentration of the active in formulation A [4]	Concentration of the active in formulation B (after 14 days (54° C.))	Concentration of the active in formulation B (after 14 days (r.t))	Concentration of the active in formulation A (after EC preparation)	Concentration of the active in formulation B (after EC preparation)
OC(Cc1ccccc1Cl)(Cn1nc[nH]c1=S)C1(Cl)CC1 (racemic) [Prothioconazole, 2-[(2RS)-2-(1-chlorocyclopropyl)-3-(2-chlorophenyl)-2-hydroxypropyl]-2H-1,2,4-triazole-3(4H)-thione]	14900 µg/mL	15100 µg/mL	14700 µg/mL	14800 µg/mL	14700 µg/mL	14500 µg/mL	15200 µg/mL	15300 µg/mL
Cn1cc(C(=O)Nc2ccccc2-c2cc(F)c(F)c(F)c2)c(C(F)F)n1 [Fluxapyroxad, 3-(difluoromethyl)-1-methyl-N-(3′,4′,5′-trifluorobiphenyl-2-yl)pyrazole-4-carboxamide]	7500 µg/mL	7500 µg/mL	7500 µg/mL	7400 µg/mL	9000 µg/mL	8800 µg/mL	7500 µg/mL	8900 µg/mL

From patent publication US20260026501A1, “AGROCHEMICAL COMPOSITION OF SDHI FUNGICIDES” (ADAMA MAKHTESHIM LTD., priority 2022, published 2026)
